Active and inactive are the calls of the source. The rule behind the calls is not given here.
Test system: CCRIS mutagenicity, Ames/micronucleus/aberration tests
Assay: CCRIS mutagenicity studies
[1] = Test System: AMES SALMONELLA TYPHIMURIUM, Strain/Indicator: TA98, Metabolic Activation: NONE, Method: STANDARD PLATE
[2] = Test System: AMES SALMONELLA TYPHIMURIUM, Strain/Indicator: TA100, Metabolic Activation: NONE, Method: STANDARD PLATE
[3] = Test System: AMES SALMONELLA TYPHIMURIUM, Strain/Indicator: TA1535, Metabolic Activation: NONE, Method: STANDARD PLATE
[4] = Test System: AMES SALMONELLA TYPHIMURIUM, Strain/Indicator: TA1537, Metabolic Activation: NONE, Method: STANDARD PLATE
[5] = Test System: AMES SALMONELLA TYPHIMURIUM, Strain/Indicator: TA1538, Metabolic Activation: NONE, Method: STANDARD PLATE
[6] = Test System: MOUSE LYMPHOMA, Strain/Indicator: L5178Y (TK+/TK-), Metabolic Activation: NONE, Method: SUSPENSION/PLATE
[7] = Test System: MOUSE LYMPHOMA, Strain/Indicator: L5178Y (TK+/TK-), Metabolic Activation: RAT, LIVER, S-9, AROCLOR 1254, Method: SUSPENSION/PLATE
[8] = Test System: AMES SALMONELLA TYPHIMURIUM, Strain/Indicator: TA100, Metabolic Activation: RAT, LIVER, S-9, AROCLOR 1254, Method: STANDARD PLATE

SMILES: C=C[Si](C)(Cl)Cl
- mutagenic call (Test System: AMES SALMONELLA TYPHIMURIUM, Strain/Indicator: TA98, Metabolic Activation: HAMSTER, LIVER, S-9, AROCLOR 1254 (10%), Method: STANDARD PLATE): inactive; negative
- mutagenic call [1]: inactive; negative
- mutagenic call (Test System: AMES SALMONELLA TYPHIMURIUM, Strain/Indicator: TA98, Metabolic Activation: RAT, LIVER, S-9, AROCLOR 1254 (10%), Method: STANDARD PLATE): inactive; negative
- mutagenic call (Test System: AMES SALMONELLA TYPHIMURIUM, Strain/Indicator: TA100, Metabolic Activation: HAMSTER, LIVER, S-9, AROCLOR 1254 (10%), Method: STANDARD PLATE): inactive; negative
- mutagenic call [2]: inactive; negative
- mutagenic call (Test System: AMES SALMONELLA TYPHIMURIUM, Strain/Indicator: TA100, Metabolic Activation: RAT, LIVER, S-9, AROCLOR 1254 (10%), Method: STANDARD PLATE): inactive; negative
- mutagenic call (Test System: AMES SALMONELLA TYPHIMURIUM, Strain/Indicator: TA1535, Metabolic Activation: HAMSTER, LIVER, S-9, AROCLOR 1254 (10%), Method: STANDARD PLATE): active; positive
- mutagenic call [3]: inactive; negative
- mutagenic call (Test System: AMES SALMONELLA TYPHIMURIUM, Strain/Indicator: TA1535, Metabolic Activation: RAT, LIVER, S-9, AROCLOR 1254 (10%), Method: STANDARD PLATE): inactive; negative
- mutagenic call (Test System: AMES SALMONELLA TYPHIMURIUM, Strain/Indicator: TA1537, Metabolic Activation: HAMSTER, LIVER, S-9, AROCLOR 1254 (10%), Method: STANDARD PLATE): inactive; negative
- mutagenic call [4]: inactive; negative
- mutagenic call (Test System: AMES SALMONELLA TYPHIMURIUM, Strain/Indicator: TA1537, Metabolic Activation: RAT, LIVER, S-9, AROCLOR 1254 (10%), Method: STANDARD PLATE): inactive; negative
- mutagenic call (Test System: AMES SALMONELLA TYPHIMURIUM, Strain/Indicator: TA1538, Metabolic Activation: HAMSTER, LIVER, S-9, AROCLOR 1254 (10%), Method: STANDARD PLATE): inactive; negative
- mutagenic call [5]: inactive; negative
- mutagenic call (Test System: AMES SALMONELLA TYPHIMURIUM, Strain/Indicator: TA1538, Metabolic Activation: RAT, LIVER, S-9, AROCLOR 1254 (10%), Method: STANDARD PLATE): inactive; negative
- mutagenic call [6]: inactive; negative. reevaluation of results: negative
- mutagenic call [7]: inactive; negative. reevaluation of results: inconclusive

SMILES: CC(=O)c1ccccn1
- mutagenic call (Test System: AMES SALMONELLA TYPHIMURIUM, Strain/Indicator: TA98, Metabolic Activation: HAMSTER, LIVER, S-9, AROCLOR 1254, Method: STANDARD PLATE): inactive; negative
- mutagenic call [1]: inactive; negative
- mutagenic call (Test System: AMES SALMONELLA TYPHIMURIUM, Strain/Indicator: TA98, Metabolic Activation: RAT, LIVER, S-9, AROCLOR 1254, Method: STANDARD PLATE): inactive; negative
- mutagenic call (Test System: AMES SALMONELLA TYPHIMURIUM, Strain/Indicator: TA100, Metabolic Activation: HAMSTER, LIVER, S-9, AROCLOR 1254, Method: STANDARD PLATE): inactive; negative
- mutagenic call [2]: inactive; negative
- mutagenic call [8]: inactive; negative
- mutagenic call (Test System: AMES SALMONELLA TYPHIMURIUM, Strain/Indicator: TA1535, Metabolic Activation: HAMSTER, LIVER, S-9, AROCLOR 1254, Method: STANDARD PLATE): inactive; negative
- mutagenic call [3]: inactive; negative
- mutagenic call (Test System: AMES SALMONELLA TYPHIMURIUM, Strain/Indicator: TA1535, Metabolic Activation: RAT, LIVER, S-9, AROCLOR 1254, Method: STANDARD PLATE): inactive; negative
- mutagenic call (Test System: AMES SALMONELLA TYPHIMURIUM, Strain/Indicator: TA1537, Metabolic Activation: HAMSTER, LIVER, S-9, AROCLOR 1254, Method: STANDARD PLATE): inactive; negative
- mutagenic call [4]: inactive; negative
- mutagenic call (Test System: AMES SALMONELLA TYPHIMURIUM, Strain/Indicator: TA1537, Metabolic Activation: RAT, LIVER, S-9, AROCLOR 1254, Method: STANDARD PLATE): inactive; negative
- mutagenic call (Test System: AMES SALMONELLA TYPHIMURIUM, Strain/Indicator: TA1538, Metabolic Activation: HAMSTER, LIVER, S-9, AROCLOR 1254, Method: STANDARD PLATE): inactive; negative
- mutagenic call [5]: inactive; negative
- mutagenic call (Test System: AMES SALMONELLA TYPHIMURIUM, Strain/Indicator: TA1538, Metabolic Activation: RAT, LIVER, S-9, AROCLOR 1254, Method: STANDARD PLATE): inactive; negative
- mutagenic call [6]: active; positive. reevaluation of results: positive
- mutagenic call [7]: active; positive. reevaluation of results: inconclusive

SMILES: O=[N+]([O-])c1ccc(Nc2ccc(O)cc2)c([N+](=O)[O-])c1
- mutagenic call (Test System: AMES SALMONELLA TYPHIMURIUM, Strain/Indicator: TA97, Metabolic Activation: HAMSTER, LIVER, S-9, AROCLOR 1254 (10%), Method: PREINCUBATION): active; positive
- mutagenic call (Test System: AMES SALMONELLA TYPHIMURIUM, Strain/Indicator: TA97, Metabolic Activation: NONE, Method: PREINCUBATION): inactive; negative
- mutagenic call (Test System: AMES SALMONELLA TYPHIMURIUM, Strain/Indicator: TA97, Metabolic Activation: RAT, LIVER, S-9, AROCLOR 1254 (10%), Method: PREINCUBATION): inactive; negative
- mutagenic call (Test System: AMES SALMONELLA TYPHIMURIUM, Strain/Indicator: TA98, Metabolic Activation: HAMSTER, LIVER, S-9, AROCLOR 1254 (10%), Method: PREINCUBATION): active; positive
- mutagenic call (Test System: AMES SALMONELLA TYPHIMURIUM, Strain/Indicator: TA98, Metabolic Activation: NONE, Method: PREINCUBATION): active; positive
- mutagenic call (Test System: AMES SALMONELLA TYPHIMURIUM, Strain/Indicator: TA98, Metabolic Activation: RAT, LIVER, S-9, AROCLOR 1254 (10%), Method: PREINCUBATION): active; positive
- mutagenic call (Test System: AMES SALMONELLA TYPHIMURIUM, Strain/Indicator: TA100, Metabolic Activation: HAMSTER, LIVER, S-9, AROCLOR 1254 (10%), Method: PREINCUBATION): active; positive
- mutagenic call (Test System: AMES SALMONELLA TYPHIMURIUM, Strain/Indicator: TA100, Metabolic Activation: NONE, Method: PREINCUBATION): active; positive
- mutagenic call (Test System: AMES SALMONELLA TYPHIMURIUM, Strain/Indicator: TA100, Metabolic Activation: RAT, LIVER, S-9, AROCLOR 1254 (10%), Method: PREINCUBATION): active; positive
- mutagenic call (Test System: AMES SALMONELLA TYPHIMURIUM, Strain/Indicator: TA1535, Metabolic Activation: HAMSTER, LIVER, S-9, AROCLOR 1254 (10%), Method: PREINCUBATION): inactive; negative
- mutagenic call (Test System: AMES SALMONELLA TYPHIMURIUM, Strain/Indicator: TA1535, Metabolic Activation: NONE, Method: PREINCUBATION): inactive; negative
- mutagenic call (Test System: AMES SALMONELLA TYPHIMURIUM, Strain/Indicator: TA1535, Metabolic Activation: RAT, LIVER, S-9, AROCLOR 1254 (10%), Method: PREINCUBATION): inactive; negative

SMILES: ONc1ncnc2nc[nH]c12
- mutagenic call (Test System: AMES SALMONELLA TYPHIMURIUM, Strain/Indicator: HISG46, Metabolic Activation: NONE, Method: STANDARD PLATE): active; positive
- mutagenic call (Test System: AMES SALMONELLA TYPHIMURIUM, Strain/Indicator: TA97, Metabolic Activation: NONE, Method: STANDARD PLATE): active; positive
- mutagenic call (Test System: AMES SALMONELLA TYPHIMURIUM, Strain/Indicator: TA97, Metabolic Activation: RAT, LIVER, S-9, AROCLOR 1254, Method: STANDARD PLATE): inactive; negative
- mutagenic call [1]: inactive; negative
- mutagenic call (Test System: AMES SALMONELLA TYPHIMURIUM, Strain/Indicator: TA100(TN5-1,8-DNP1011), Metabolic Activation: NONE, Method: STANDARD PLATE): active; positive
- mutagenic call (Test System: AMES SALMONELLA TYPHIMURIUM, Strain/Indicator: TA100(TN5-1,8-DNP1012), Metabolic Activation: NONE, Method: STANDARD PLATE): active; positive
- mutagenic call [8]: inactive; negative
- mutagenic call (Test System: AMES SALMONELLA TYPHIMURIUM, Strain/Indicator: TA1950, Metabolic Activation: NONE, Method: STANDARD PLATE): active; positive
- mutagenic call (Test System: E.COLI, Strain/Indicator: CM871, Metabolic Activation: NONE, Method: STANDARD PLATE): active; positive
- mutagenic call (Test System: E.COLI, Strain/Indicator: WP2, Metabolic Activation: NONE, Method: STANDARD PLATE): active; positive
